Key:
Test in all cases: 72 h toxicity of erlotinib, cell viability / IC50 analysis
Assay type in all cases: cell-based
[1] = system: H820 cells; conditions: Homo sapiens, NCI-H820, H820 (del E746-E749 and T790M)
Experimental: (§1) FIG. 42A,B. FIG. 42A and 42B show 72 h toxicity of erlotinib in various NSCLC cells lines: (A) Cell viability plot and (B) IC50 analysis. Results were averaged from 3 independent experiments.
(§2) (A, C, E) Represent the cell viability plot and (B, D, F) represent the associated IC50 analysis.
(§3) The IC50 of erlotinib was investigated in multiple cell lines based on their AXL and FN14 expressions and EGFR/KRAS mutant status (FIG. 42). […] The independent and combined effects of AXL and FN14 siRNAs were also examined. siRNA and siRNA based constructs for treatment and studied variation in IC50 of erlotinib in multiples drug resistant cell lines were used.

[2] = system: H1975; conditions: Homo sapiens, NCI-H1975; T790M mutant H1975, 72 h
Experimental: as §1, §3

[3] = system: HCC827; conditions: HCC827 carrying E746-A750 deletion
Experimental: as §1, §3

[4] = system: A549
Experimental: as §1, §2, §3
Rho, et al., Cancer Res 2014; 74: 253-262. […] Srikar, et al., Sci Rep 2016; 6: 30245.

C#Cc1cccc(Nc2ncnc3cc(OCCOC)c(OCCOC)cc23)c1 [erlotinib]
IC50 [1]: > 10 µM
IC50 [2]: > 10 µM
sensitivity to erlotinib [3]: highly sensitive
resensitization towards the drug ([4]; A549, downregulating all three pathways (AXL, FN14, KRAS)): total resensitization
IC50 ([4]; Homo sapiens, A549, 72 h, read-out: IC50 of erlotinib): > 10 µM

— patent US11576873B2, “Compositions for the treatment of drug-resistant tumors and methods of use thereof” (THE CURATORS OF THE UNIVERSITY OF MISSOURI, priority 2017, dated 2023)
